These results are taken from patent publication US9598419B1, “Imidazotriazine and imidazodiazine compounds” (Universite de Montreal, priority 2014, dated 2017).

For one data set, the target named is T1, PAR4 (Homo sapiens, UniProt Q96RI0).
T1 construct: PRP was isolated by centrifugation at 170 g for 14 minutes and platelets were further pelleted; from tissue; host or cells: human washed platelets
T1 sequence (Q96RI0 18-385): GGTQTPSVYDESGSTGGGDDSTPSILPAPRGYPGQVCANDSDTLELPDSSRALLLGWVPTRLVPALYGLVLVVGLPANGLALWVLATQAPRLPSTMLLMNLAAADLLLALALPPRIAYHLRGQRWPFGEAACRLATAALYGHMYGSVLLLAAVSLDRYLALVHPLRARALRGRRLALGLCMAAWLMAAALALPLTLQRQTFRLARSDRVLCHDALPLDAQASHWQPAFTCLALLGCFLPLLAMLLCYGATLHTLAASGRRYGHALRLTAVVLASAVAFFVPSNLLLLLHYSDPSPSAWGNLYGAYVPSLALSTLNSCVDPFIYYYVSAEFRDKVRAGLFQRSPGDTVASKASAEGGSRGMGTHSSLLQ
In words: washed platelet aggregation assay (PAR4 agonist peptides). The data set is classed as cell-based. The note with it: washed platelets. On the procedure:
Human blood was collected in ACD (85 mM tri-sodium citrate, 78 mM citric acid, 110 mM D-glucose, pH 4.4) at a ratio of 1.4 ml per 10 ml blood. PRP was isolated by centrifugation at 170 g for 14 minutes and platelets were further pelleted by centrifugation at 1300 g for 6 minutes. Platelets were washed once with 10 ml ACD containing 1 mg/ml bovine serum albumin Platelets were resuspended at ˜2.5×10^8/ml in Tyrode's Buffer (137 mM NaCl, 2 mM KCl, 1.0 mM MgCl2, 1 mM CaCl2, 5 mM glucose, 20 mM HEPES pH 7.4).

For data set [1], the target named is T2, protease-activated receptor type 4 (PAR4) (Homo sapiens, UniProt Q96RI0).
T2 sequence (Q96RI0 18-385): T1 sequence (Q96RI0 18-385)
The conditions noted are these: quoted from the abstract; cited from earlier work.

A further data set addresses T3, PAR1 (Homo sapiens, UniProt P25116).
T3 construct: host or cells: ACS patients (clinical trial)
T3 sequence (P25116 22-425): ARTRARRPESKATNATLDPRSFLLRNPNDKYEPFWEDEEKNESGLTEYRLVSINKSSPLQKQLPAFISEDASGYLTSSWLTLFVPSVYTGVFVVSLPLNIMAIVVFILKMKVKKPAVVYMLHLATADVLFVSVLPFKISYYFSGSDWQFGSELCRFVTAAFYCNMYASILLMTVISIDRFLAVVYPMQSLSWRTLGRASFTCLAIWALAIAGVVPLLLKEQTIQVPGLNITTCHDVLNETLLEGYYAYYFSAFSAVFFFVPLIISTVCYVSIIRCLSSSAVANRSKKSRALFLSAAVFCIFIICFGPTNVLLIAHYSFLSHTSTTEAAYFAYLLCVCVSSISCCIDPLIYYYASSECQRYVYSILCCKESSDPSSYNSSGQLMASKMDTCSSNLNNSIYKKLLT
The conditions noted are these: ACS patients, phase III; cited from earlier work.

Each structure is given as a SMILES string.

On PAR4, `C[C@H](N)C(=O)N[C@@H](Cc1ccc(O)cc1)C(=O)N1CCC[C@H]1C(=O)NCC(=O)N[C@@H](CCCCN)C(=O)N[C@@H](Cc1ccccc1)C(=O)O` [AYPGKF] displayed an EC50 of 12 µM.

Take `CCOC(=O)c1ccc(-c2nn(Cc3ccccc3)c3ccccc23)cc1` [ethyl 4-(1-benzyl-1H-indazol-3-yl)benzoate]: the “inhibition of PAR4-dependent platelet activation” value in data set [1] is “selective and potent inhibitor”.

With `CCOC(=O)N[C@@H]1CC[C@@H]2[C@@H](C1)C[C@H]1C(=O)O[C@H](C)[C@H]1[C@H]2/C=C/c1ccc(-c2cccc(F)c2)cn1` [vorapaxar], on PAR1, the cardiovascular events entry is given as “did not significantly reduce” and the “risk of major bleeding” value is on record as “significantly increased”.
